pEC50: −log10 of the molar value.
Target: T1, Aβ42 (amyloid-beta) (Homo sapiens, UniProt P05067)
T1 construct: gene APP; Aβ42
Assay: ThT fibril aggregation assay, […] Aβ[…] h at […] °C
Assay type: biochemical

T1 sequence (P05067 672-713): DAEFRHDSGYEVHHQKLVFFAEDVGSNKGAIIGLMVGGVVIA

Work on `O=C(/C=C/c1ccc(O)c(O)c1)O[C@H](Cc1ccc(O)c(O)c1)C(=O)O` [Rosmarinic acid] yielded a pEC50 of 4.82.

— paper PMC12250624, “Anti-Amyloid Aggregation Effects of Gobaishi (Galla chinensis) and Its Active Constituents” (Molecules, 2025)
